Literature values, collected in patent US20060188579A1, “Novel process” (priority 2003, published 2006).

Details: particles produced by the method of WO00/38811; lowest value ('down to')

dv(0.5): 1.64 μm
Compound: Nc1cnc(-c2cc(Cl)cc(Cl)c2Cl)c(N)n1 [2,6-diamino-3-(2,3,5-trichlorophenyl)pyrazine]
